Source: US9284296B2, “Bipyridine sulfonamide derivatives for the treatment of neurodegenerative diseases or conditions” (AUBERGINE PHARMACEUTICALS LLC, priority 2010, dated 2016)

Test system: SH-SY5Y human neuroblastoma cells
Test: Protection against hydrogen peroxide-induced cell death
Type: cell-based
Conditions: Homo sapiens; SH-SY5Y cells, 1 h preincubation, 100 μM hydrogen peroxide, 24 h, LDH readout of live cells
Procedure: The aim of this assay is to determine the neuroprotective effect of the compounds when human neuroblastoma cells are exposed to the oxidative stress induced by hydrogen peroxide, which leads to cell death. Therefore the protective effect of the compounds was measured by monitoring cell survival using a suitable commercial kit (Cytotoxicity Detection Kit, Roche Diagnostics GmbH, Mannheim, Germany) based on the quantification of the lactate dehydrogenase activity obtained from lysates of the remaining live cells with a colorimetric assay yielding absorbance at 492 nm as the final readout.
SH-SY5Y human neuroblastoma cells were seeded into 96-well culture plate at a density of 10,000 cells/well. Cells were preincubated for one hour with different concentrations of the compound at a 1% (v/v) DMSO concentration in an equivolumetric mixture of Minimum Essential Medium (MEM) and Nutrient Mixture HAM F12 supplemented with 10% foetal bovine serum, 100 U/ml penicillin, 100 μg/ml streptomycin, 1 mM each of non-essential aminoacids (commercial preparation from GIBCO, Paisley, UK) and 2 mM L-glutamine. Hydrogen peroxide was then added to reach 100 μM and the incubation was extended for 24 h. Then the medium was removed and live cells, which remained attached to the bottom of the plate, were lysed by incubating them during 5 min with 50 μl of 1% (v/v) Triton X-100 in Krebs-Hepes buffer (10 mM Hepes pH7.3 with 145 mM NaCl, 5.5 mM KCl, 1 mM MgCl2, 2 mM CaCl2 and 1 mM glucose). This lysate was used to measure LDH activity using the commercial kit according to the manufacturer's instructions. In the culture plate several wells were included as a control of cell death, in these wells the cells were preincubated with 1% (v/v) DMSO before hydrogen peroxide addition. Likewise, several wells were included as control for full cell survival, in these wells the addition of H2O2 was omitted. The absorbance of each tested sample was normalized to that of the control wells, so that for every compound concentration the percentage of protective effect was calculated with the following equation:
[formula] where “S” is the absorbance of the sample being considered, “E” is the average absorbance of wells used as control of full cell survival and “B” is the average absorbance of wells used as control of cell death. The values obtained at every compound concentration were finally used to calculate the EC50 (i.e., the concentration causing 50% of protective effect) of the tested compound. For that purpose the data were fitted to a classical 4-parameters isotherm equation using the nonlinear regression function of GraphPad™ Prism 5.0 (GraphPad Software Inc.), such equation is described below:
[formula] where “L” is the lower asymptote of the theoretical sigmoidal curve, “H” is the higher asymptote, “C” is the concentration of compound and “n” is the Hill coefficient.

Structure (SMILES)	EC50 [nM]
COc1cc(CNS(=O)(=O)c2cccc(Cl)c2Cl)nc(-c2ccccn2)c1 [Compound 95]	1090
COc1cc(CNS(=O)(=O)c2cc(F)ccc2F)nc(-c2ccccn2)c1 [Compound 59]	4800
COc1cc(CNS(=O)(=O)N2CCOCC2)nc(-c2ccccn2)c1 [Compound 20, Morpholine-4-sulfonic acid (4-methoxy-[2,2′]bipyridinyl-6-ylmethyl)-amide]	5100
COc1cc(CNS(=O)(=O)c2ccc(-c3cnco3)s2)nc(-c2ccccn2)c1 [Compound 55]	1300
COc1cc(CNS(=O)(=O)c2c(C)noc2C)nc(-c2ccccn2)c1 [Compound 54]	23100
COc1cc(CNS(=O)(=O)c2cccnc2)nc(-c2ccccn2)c1 [Compound 21, Pyridine-3-sulfonic acid (4-methoxy-[2,2′]bipyridinyl-6-ylmethyl)-amide]	5190
COc1cc(CNS(=O)(=O)c2sc(Cl)nc2Cl)nc(-c2ccccn2)c1 [Compound 101]	230
COc1cc(CNS(=O)(=O)c2ccc(Cl)cc2F)nc(-c2ccccn2)c1 [Compound 57]	1500
COc1cc(CNS(=O)(=O)CC(F)(F)F)nc(-c2ccccn2)c1 [Compound 82]	500
COc1cc(CNS(=O)(=O)c2cccc3scnc23)nc(-c2ccccn2)c1 [Compound 61]	820
COc1cc(CNS(=O)(=O)c2ccc(S(C)(=O)=O)cc2)nc(-c2ccccn2)c1 [Compound 22, 4-Methanesulfonyl-N-(4-methoxy-[2,2′]bipyridinyl-6-ylmethyl)-benzenesulfonamide]	880
COc1cc(CNS(=O)(=O)c2ccc3ccccc3c2)nc(-c2ccccn2)c1 [Compound 15, Naphthalene-2-sulfonic acid (4-methoxy-[2,2′]bipyridinyl-6-ylmethyl)-amide]	4800
COc1cc(CNS(=O)(=O)C(F)(F)F)nc(-c2ccccn2)c1 [Compound 17, C,C,C-Trifluoro-N-(4-methoxy-[2,2′]bipyridinyl-6-ylmethyl)-methanesulfonamide]	820
COc1cc(CNS(=O)(=O)C2CCCCC2)nc(-c2ccccn2)c1 [Compound 7, Cyclohexanesulfonic acid (4-methoxy-[2,2′]bipyridinyl-6-ylmethyl)-amide]	11200
COc1cc(CNS(=O)(=O)c2cnc(Cl)s2)nc(-c2ccccn2)c1 [Compound 106]	630
COc1cc(CN(Cc2cc(OC)cc(-c3ccccn3)n2)S(=O)(=O)c2cccs2)nc(-c2ccccn2)c1 [Compound 25]	4950
COc1cc(CNS(=O)(=O)c2cc(OC)ccc2OC)nc(-c2ccccn2)c1 [Compound 1, 2,5-Dimethoxy-N-(4-methoxy-[2,2′]bipyridinyl-6-ylmethyl)-benzenesulfonamide]	36000
COc1cc(CNS(=O)(=O)c2ccc(-c3cc(C)no3)o2)nc(-c2ccccn2)c1 [Compound 79]	720
COc1cc(CNS(=O)(=O)c2ccc(C)cc2)nc(-c2ccccn2)c1 [Compound 3, N-(4-Methoxy-[2,2′]bipyridinyl-6-ylmethyl)-4-methyl-benzenesulfonamide]	23000
COc1cc(CNS(=O)(=O)c2cccc3cccnc23)nc(-c2ccccn2)c1 [Compound 60]	3200
COc1cc(CNS(C)(=O)=O)nc(-c2ccccn2)c1 [Compound 5, N-(4-Methoxy-[2,2′]bipyridinyl-6-ylmethyl)-methanesulfonamide]	39800
COc1cc(CNS(=O)(=O)c2c(F)cccc2F)nc(-c2ccccn2)c1 [Compound 58]	1600
COc1cc(CNS(=O)(=O)Cc2ccc(C(F)(F)F)cc2)nc(-c2ccccn2)c1 [Compound 23, N-(4-Methoxy-[2,2′]bipyridinyl-6-ylmethyl)-C-(4-trifluoromethyl-phenyl)-methanesulfonamide]	2910
COc1cc(CNS(=O)(=O)c2cc3ccccc3o2)nc(-c2ccccn2)c1 [Compound 62]	1880

Test system: secretion of amyloid peptide β1-40 (Aβ1-40)
Test: Inhibition of β-amyloid secretion (CHO7w cells stably transfected with human APP, ELISA)
Type: cell-based
Conditions: CHO-7W, 24 h incubation, range stated for the listed compounds together
Procedure: The inhibition caused by the compounds on the secretion of amyloid peptide β1-40 (Aβ1-40) was determined by measuring the levels of this peptide in cell supernatants after incubating the cells with several concentrations of the tested compound. A CHO7w cell line, stably transfected with human amyloid precursor protein (APP), was used. Cells were dispensed in 96-well culture plates (5,000 cells/well) and grown in DMEM supplemented with 2% (v/v) foetal bovine serum, 100 U/ml penicillin, 100 μg/ml streptomycin, 2 mM L-glutamine and 200 μg/ml G418 in the presence of several concentrations of the tested compound which had been previously dissolved in DMSO (1% (v/v) DMSO final concentration). After a 24 h incubation the amount of Aβ1-40 secreted to the medium was measured with an ELISA-based commercial kit (Human Amyloid β-40 ELISA High Sensitivity Kit, Millipore, Billerica, Mass., USA) using absorbance at 450 nm as the final readout. In the culture plate several wells were included as a control for lack of Aβ1-40 secretion, in these wells the cells were incubated in the presence of 16% (v/v) DMSO to inhibit cell growth therefore abolishing Aβ1-40 secretion. Likewise, several wells were also included as a control for full Aβ1-40 secretion, in these wells the cells were grown in the presence of 1% (v/v) DMSO. The absorbance of each tested sample was normalized to that of the control wells, so that for every compound concentration the percentage of inhibition was calculated with the following equation:
[formula] where “S” is the absorbance of the sample being considered, “E” is the average absorbance of wells lacking Aβ1-40 secretion and “B” is the average absorbance of wells with full Aβ1-40 secretion. The inhibition values obtained at every compound concentration were fitted to a 4-parameters isotherm equation, as described above, to calculate the […] (i.e., the concentration causing 50% of inhibition of Ab1-40 secretion).

Structure (SMILES)	IC50 [nM]
COc1ccc(S(=O)(=O)NCc2cc(OC)cc(-c3ccccn3)n2)cc1 [Compound 38, 4-Methoxy-N-(4-methoxy-[2,2′]bipyridinyl-6-ylmethyl)-benzenesulfonamide]	300 to 42000
COc1cc(CNS(=O)(=O)c2ccc(-c3ccccn3)s2)nc(-c2ccccn2)c1 [Compound 46]	300 to 42000
COc1cc(CNS(=O)(=O)c2ccc(CNC(C)=O)s2)nc(-c2ccccn2)c1 [Compound 52]	300 to 42000
COc1cc(CNS(=O)(=O)c2ccc(-c3cnco3)s2)nc(-c2ccccn2)c1 [Compound 55]	300 to 42000
COC(=O)c1ccc(S(=O)(=O)NCc2cc(OC)cc(-c3ccccn3)n2)o1 [Compound 51]	300 to 42000
COc1cc(CNS(=O)(=O)c2cc(Cl)ccc2F)nc(-c2ccccn2)c1 [Compound 44]	300 to 42000
COc1cc(CNS(=O)(=O)c2ccccc2C#N)nc(-c2ccccn2)c1 [Compound 40]	300 to 42000
COc1cc(CNS(=O)(=O)c2cc(C(F)(F)F)ccc2F)nc(-c2ccccn2)c1 [Compound 66]	300 to 42000
COc1cc(CNS(=O)(=O)c2sc(Cl)nc2C)nc(-c2ccccn2)c1 [Compound 47]	300 to 42000
CCN(CC)CCOc1cc(CN(Cc2cc(OCCN(CC)CC)cc(-c3ccccn3)n2)S(=O)(=O)c2cccs2)nc(-c2ccccn2)c1 [Compound 29, Thiophene-2-sulfonic acid bis-[4-(2-diethylamino-ethoxy)-[2,2′]bipyridinyl-6-ylmethyl]-amide]	300 to 42000
COc1cc(CNS(=O)(=O)c2ccc(-c3ccno3)s2)nc(-c2ccccn2)c1 [Compound 42]	300 to 42000

Further lines, results first:

IC50 [nM]	Structure (SMILES)
300 to 42000	COc1cc(CNS(=O)(=O)c2ccc(C(C)(C)C)cc2)nc(-c2ccccn2)c1 [Compound 88]
300 to 42000	COc1cc(CNS(=O)(=O)c2c(C)cccc2Cl)nc(-c2ccccn2)c1 [Compound 84]
300 to 42000	COc1cc(CNS(=O)(=O)c2cnc(Cl)nc2)nc(-c2ccccn2)c1 [Compound 107]
300 to 42000	COc1cc(CNS(=O)(=O)c2sc(Cl)nc2Cl)nc(-c2ccccn2)c1 [Compound 101]
300 to 42000	COc1cc(CNS(=O)(=O)c2ccc3c(c2)OCCO3)nc(-c2ccccn2)c1 [Compound 87]
300 to 42000	COc1cc(CNS(=O)(=O)CC(F)(F)F)nc(-c2ccccn2)c1 [Compound 82]
300 to 42000	COc1cc(CNS(=O)(=O)c2c(C)cc(C)cc2C)nc(-c2ccccn2)c1 [Compound 75]
300 to 42000	COc1cc(CNS(=O)(=O)c2cnc(Cl)s2)nc(-c2ccccn2)c1 [Compound 106]
300 to 42000	COc1cc(CNS(=O)(=O)c2cc3ccccc3s2)nc(-c2ccccn2)c1 [Compound 73]
300 to 42000	COc1cc(CNS(=O)(=O)c2ccc([N+](=O)[O-])cc2)nc(-c2ccccn2)c1 [Compound 74]
300 to 42000	COc1cc(CNS(=O)(=O)c2c(Cl)cccc2Cl)nc(-c2ccccn2)c1 [Compound 97]
300 to 42000	COc1cc(CNS(=O)(=O)c2c(F)cc(OC)cc2F)nc(-c2ccccn2)c1 [Compound 85]
300 to 42000	COc1cc(CNS(=O)(=O)c2ccc(-c3ccccc3)cc2)nc(-c2ccccn2)c1 [Compound 89]
300 to 42000	COc1cc(CNS(=O)(=O)CCC(F)(F)F)nc(-c2ccccn2)c1 [Compound 86]
300 to 42000	COc1cc(CNS(=O)(=O)c2ccc(C(F)(F)F)cc2[N+](=O)[O-])nc(-c2ccccn2)c1 [Compound 102]
